The conditions of series [1]: commercially available trityl protecting groups, values stated without experiment; cited from earlier work.
Series [2] in a line: Stability of the amino modifier reagent in acetonitrile. The format is physicochemical. Conditions: room temperature. The procedure: The sulfoxy derivative survives conditions of polynucleotide synthesis and can either be cleaved with standard deblock solution, or left intact for an HPLC purification. […] UV quantification for release of the new protecting group is possible. Extinction coefficients (L/(mol×cm) shown in the Scheme above were measured in 2% TFA/DCM.

The nature of series [3]: pKR+ determination of trityl alcohols by UV spectrophotometry in aqueous sulphuric acid solutions (Deno acidity function HR). Conditions: for pKR+ (477 nm): absorbance at 477 nm. The format is physicochemical. An excerpt:
The physico-chemical properties of trityl cations have been thoroughly investigated. In 1955 Deno et al reported an empirical Acidity Function HR which allows the comparison of the stability of different trityl cations (N. C. Deno, J. J. Jaruzelski and A. Schriesheim, J. Am. Chem. Soc. 1955, 77, 3044). Using the acidity function and the methods described by Deno it is possible to evaluate the pKR+ parameter for trityl alcohol derivatives, which is a direct indication of the stability of the corresponding trityl cations.
Once the acidity function HR for a particular acidic solution is known, the pKR+ of a triarylcarbinol dissolved in that acidic solution can be calculated in a straightforward manner once the ratio [R^+]/[ROH] has been experimentally determined. Therefore, in order to determine pKR+ values in acidic solutions of known HR, the ratio [R^+]/[ROH] must be established or, what is the equivalent, the degree of ionization of the triarylcarbinol.
The [R^+]/[ROH] ratio can be determined by spectrophotometic means. In particular, for trityl derivatives, UV spectrophotometry is useful since trityl cations and their parent molecules show completely different absorption spectra in the UV region.
In general, the experimental procedure for determining pKR+ for a trityl alcohol is summarised as follows. A solution of the triaryl alcohol in question in acetic acid is prepared in a way that the final concentration of the solutions to be analysed by UV spectrometry are in the range of 10^−5 to 10^−7 molar. A constant amount of the acetic acid solution so prepared is then added to the solutions of sulphuric acid (for instance, using a micropipette) to carry out the UV spectrometry experiments. It is recommended that the values of E are measured at the λmax of the trityl cation.
Starting from the most concentrated sulphuric acid solutions, samples are prepared until it is observed that the absorbance of the samples starts to decay. In the range of concentrations prior to the decay of absorbance, the triaryl alcohol is dissolved in a sufficiently concentrated sulphuric to completely ionise it. Therefore, ε=εR. In the region of sulphuric acid concentrations in which the absorbance of the samples decays, a series of values for ε are collected.
Finally, a concentration of sulphuric acid is reached in which the absorbance at λmax is negligible (or the alcohol starts to precipitate). This indicates the end of the experiment and values for the [R^+]/[ROH] for a series of given HR are available.
The pKR+ can be determined using the equation
Using UV spectrometry, the λmax of the trityl cation was determined to be approximately 477 nm, as illustrated in FIG. 1. Absorbance values were recorded at this wavelength for different concentrations of sulphuric acid. […]

Read-outs that look alike come from different tables or passages of the source.

As for 4,4′-dimethoxytrityl [DMTr], the “pKR+” value in series [1] was −1.24.
As for `COc1ccc(C(NCCCCCCOP(OCCC#N)N(C(C)C)C(C)C)(c2ccc(OC)cc2)c2ccc([S+](C)[O-])cc2)cc1` (stereo not shown) [DMS(O)MTr amino modifier, 6-(4,4′-dimethoxy-4″-(methylsulfinyl)tritylamino)hexylolxy-(2-cyanoethoxy) diisopropylaminophosphine], in series [2], the “stability of the reagent in solution” value is recorded as “stable in acetonitrile at room temperature for at least two weeks”.
Take `COc1ccc(C(O)(c2ccc(C)cc2)c2ccc(C)cc2)cc1` [MDMeTrOH, 4-methoxy-4′,4″-dimethyltrityl alcohol]: the results for the “pKR+ (477 nm)” value in series [3] (H2SO4 20%), in series [3] (H2SO4 25%) and in series [3] (H2SO4 30%) were −2.7, −2.6 and −2.5, respectively. Also, in series [3] (overall value for the trityl alcohol, UV at λmax of the trityl cation in sulphuric acid solutions), the “pKR+” value is recorded as −2.6.
For the compound monomethoxytrityl [MMTr], the “pKR+” value in series [1] is −3.40.

The record behind these values is patent publication US20090182135A1, “Amino modifiers” (priority 2007, published 2009).
